Data taken from US11691992B2 (Anacor Pharmaceuticals, Inc., priority 2017, dated 2023).
Read-outs that look alike come from different tables or passages of the source.

Legend:
Assay type in all cases: cell-based
[1] = test system: bloodstream forms of T. b. rhodesiense STIB 900; assay: T. brucei rhodesiense STIB 900 growth inhibition assay; settings: Trypanosoma brucei, 72 h
How it was run: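 Bloodstream-form STIB 900 (10^4/well) were cultured in supplemented MEM with 15% horse serum and compound (90 to 0.123 μg/ml, 3-fold steps) for 72 h at 37 °C, 5% CO2. Viability was read by Alamar Blue fluorescence (ex 536/em 588 nm) after a further 2-4 h.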

[2] = test system: Trypanosoma brucei rhodesiense STIB 900 strain; assay: Trypanosoma brucei rhodesiense STIB 900 screening assay; settings: 72 h
How it was run: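 Bloodstream forms of T. b. rhodesiense STIB 900 (10^4 per well) cultured with seven 3-fold drug dilutions (90 to 0.123 μg/mL) in MEM with 15% horse serum, 72 h, 37 °C, 5% CO2. Alamar Blue added for 2-4 h more; fluorescence read at ex 536/em 588 nm for IC50.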

[3] = test system: bloodstream-form trypanosome T. brucei brucei 427 strain; assay: Trypanosoma brucei brucei high-throughput screening assay (resazurin)
Procedure: Example 105. Trypanosoma brucei brucei High-Throughput Screening Assay Procedure
All experiments were conducted with the bloodstream-form trypanosome T. brucei brucei 427 strain obtained from Seattle Biomedical Research Institute (Seattle, Wash.). Parasites were cultured in T-25 vented cap flasks and kept in humidified incubators at 37° C. and 5% CO2. The parasite culture media was complete HMI-9 medium containing 10% FBS, 10% Serum Plus medium and penicillin/streptomycin. To ensure log growth phase, trypanosomes were sub-cultured at appropriate dilutions every 2-3 days. Approximately 50 microliters of log phase cultures were diluted 1:10 in HMI-9 and 10 μL of the diluted culture was removed and counted using a hemocytometer to determine parasite concentration. Parasites were diluted by addition of an appropriate volume of HMI-9 to achieve a final parasite concentration of 2×10^5/mL. Compounds of the invention to be tested were serially diluted in DMSO and 0.5 μL added to 49.5 μL HMI-9 in triplicate 96-well plates using a Biomek NX liquid handler. Parasites from the diluted stock were added to each well (50 μL) using a Multidrop 384 dispenser to give a final concentration of 1.0×10^5/ml parasites in […] for DMSO. Trypanosomes were incubated with compounds for 72 hrs at 37° C. with 5% CO2. Resazurin (20 μL of 12.5 mg/ml stock) from Sigma-Aldrich was added to each well and plates were incubated for an additional 2-4 hrs. Assay plates were read using an EnVision plate reader at an excitation wavelength of 544 nm and emission of 590 nm. Triplicate data points were averaged to generate sigmoidal dose response curve and determine IC50 values using XLfit curve fitting software from IDBS (Guildford, UK).

[4] = test system: T. cruzi Tulahuen strain C2C4 containing the β-galactosidase (Lac Z) gene in rat skeletal myoblasts (L-6 cells); assay: Trypanosoma cruzi C2C4 screening assay
Procedure: Example 113: Trypanosoma cruzi C2C4 Screening Assay Procedure
Rat skeletal myoblasts (L-6 cells) were seeded in 96-well microtiter plates at 2×10^3 cells/well in 100 μL RPMI 1640 medium with 10% FBS and 2 mM L-glutamine. After 24 h the medium was removed and replaced by 100 μL per well containing 5×10^3 trypomastigote forms of T. cruzi Tulahuen strain C2C4 containing the β-galactosidase (Lac Z) gene (Buckner, et al., Antimicrobial Agents and Chemotherapy, 40: 2592-2597 (1996)). After 48 h the medium was removed from the wells and replaced by 100 μL fresh medium with or without a serial drug dilution of the seven 3-fold dilution steps covering a range from 90 to 0.123 μg/mL. After 96 h of incubation the plates were inspected under an inverted microscope to assure growth of the controls and sterility. The substrate (50 μL) chlorophenol red-β-D-galactopyranoside (CPRG, Roche Diagnostics, Ltd) in 0.25% Nonidet P-40/PBS was added to all wells and a color reaction developed within 2-6 h which was read photometrically at 540 nm. Data were transferred into the graphic program Softmax Pro (Molecular Devices), which calculated IC50 values.

[5] = bloodstream forms, Alamar Blue, protocol of Example 110, read-out: IC50: I Org. Growth T. brucei rhodesiense STIB 900, 3 d
[6] = STIB 900 bloodstream forms, Alamar Blue, protocol of Example 114, read-out: Swiss TPH T b rhodesiense IC50
[7] = bloodstream form, 72 hrs incubation, resazurin, read-out: IC50: I Org. Growth T. brucei brucei SBRI 427, 3 d
[8] = L6, in L-6 cells, 96 h, CPRG, read-out: SCYNEXIS IC50: I Org. Growth T. cruzi Tulahuen C2C4 Lac Z, 4 d
[9] = read-out: IC50: I Org. Growth T. brucei rhodesiense STIB 900, 3 d [uM]
[10] = 72 h, read-out: IC50: I Org. Growth T. brucei brucei SBRI 427, 3 d [uM]
[11] = L6, 96 h, read-out: SCYNEXIS IC50: I Org. Growth T. cruzi Tulahuen C2C4 Lac Z, 4 d [uM]
[12] = read-out: Swiss TPH T b rhodesiense IC50

SMILES	IC50 [1, 5] [µM]	IC50 [2, 6] [nM]	IC50 [3, 7] [µM]	other results
O=C(Nc1ccc2c(c1)B(O)OC2)c1nnn(-c2ccc(F)cc2)c1C(F)(F)F [Example 70, 1-(4-Fluorophenyl)-N-(1-hydroxy-1,3-dihydrobenzo[c][1,2]oxaborol-6-yl)-5-(trifluoromethyl)-1H-1,2,3-triazole-4-carboxamide]	0.31 to 10	100 to 250		
Cc1c(C(=O)Nc2ccc3c(c2)B(O)OC3)nnn1-c1ccccn1 [Example 84, N-(1-hydroxy-1,3-dihydrobenzo[c][1,2]oxaborol-6-yl)-5-methyl-1-(pyridin-2-yl)-1H-1,2,3-triazole-4-carboxamide]	< 0.1		< 0.075	IC50 [4, 8]: < 0.06 µM
O=C(Nc1ccc2c(c1)B(O)OC2)c1nnn(-c2ccccc2F)c1C(F)(F)F [Example 67, 1-(2-Fluorophenyl)-N-(1-hydroxy-1,3-dihydrobenzo[c][1,2]oxaborol-6-yl)-5-(trifluoromethyl)-1H-1,2,3-triazole-4-carboxamide]	0.1 to 0.3	100 to 250		
O=C(Nc1ccc2c(c1)B(O)OC2)c1cn(-c2ccc(F)cc2)nn1 [Example 60, 1-(4-Fluorophenyl)-N-(1-hydroxy-1,3-dihydrobenzo[c][1,2]oxaborol-6-yl)-1H-1,2,3-triazole-4-carboxamide]		< 100	0.075 to 0.15	IC50 [4, 8]: 0.06 to 0.1 µM
O=C(Nc1ccc2c(c1)B(O)OC2)c1nnn(-c2ccccc2)c1C(F)(F)F [Example 68, N-(1-hydroxy-1,3-dihydrobenzo[c][1,2]oxaborol-6-yl)-1-phenyl-5-(trifluoromethyl)-1H-1,2,3-triazole-4-carboxamide]				IC50 [1, 9]: < 0.1 µM; IC50 [3, 10]: 0.151 to 10 µM; IC50 [4, 11]: 0.11 to 1 µM; IC50 [2, 12]: < 100 nM
Cc1c(C(=O)Nc2ccc3c(c2)B(O)OC3)nnn1-c1cccnc1 [Example 93, N-(1-hydroxy-1,3-dihydrobenzo[c][1,2]oxaborol-6-yl)-5-methyl-1-(pyridin-3-yl)-1H-1,2,3-triazole-4-carboxamide]	0.31 to 10	260 to 2000		
O=C(Nc1ccc2c(c1)B(O)OC2)c1cn(-c2ccccn2)nn1 [Example 61, N-(1-hydroxy-1,3-dihydrobenzo[c][1,2]oxaborol-6-yl)-1-(pyridin-2-yl)-1H-1,2,3-triazole-4-carboxamide]	< 0.1	100 to 250	< 0.075	IC50 [4, 8]: < 0.06 µM
Cc1c(C(=O)Nc2ccc3c(c2)B(O)OC3)nnn1-c1ccccc1 [Example 89, A-(1-hydroxy-1,3-dihydrobenzo[c][1,2]oxaborol-6-yl)-5-methyl-1-phenyl-1H-1,2,3-triazole-4-carboxamide]				IC50 [1, 9]: < 0.1 µM; IC50 [3, 10]: < 0.075 µM; IC50 [4, 11]: < 0.06 µM; IC50 [2, 12]: < 100 nM
O=C(Nc1ccc2c(c1)B(O)OC2)c1nnn(-c2cccc(F)c2)c1C(F)(F)F [Example 69, 1-(3-Fluorophenyl)-N-(1-hydroxy-1,3-dihydrobenzo[c][1,2]oxaborol-6-yl)-5-(trifluoromethyl)-1H-1,2,3-triazole-4-carboxamide]	0.1 to 0.3	100 to 250		
O=C(Nc1ccc2c(c1)B(O)OC2)c1nnn(-c2cccnc2)c1C(F)(F)F [Example 71, N-(1-hydroxy-1,3-dihydrobenzo[c][1,2]oxaborol-6-yl)-1-(pyridin-3-yl)-5-(trifluoromethyl)-1H-1,2,3-triazole-4-carboxamide]	0.1 to 0.3	100 to 250		
COc1ccc(-n2nnc(C(=O)Nc3ccc4c(c3)B(O)OC4)c2C)cc1 [Example 91, N-(1-hydroxy-1,3-dihydrobenzo[c][1,2]oxaborol-6-yl)-1-(4-methoxyphenyl)-5-methyl-1H-1,2,3-triazole-4-carboxamide]			< 0.075	
